Read-outs that look alike come from different tables or passages of the source.
What was measured:
Proteus vulgaris = experiment: Minimum inhibitory concentration against bacteria, strain A; assay type: cell-based; settings: 24 hours at 30° C.; tested at 100 and 300 mg/liter
Description: (§1) Overnight cultures, grown in Caso peptone bouillon (Merck) of the various strains of bacteria: (A) Proteus vulgaris, (B) Pseudomonas aeruginosa, (C) Enterobacter aerogenes, (D) Serratia marcencens, (E) Alcaligenes denitrificans and (F) Bacillus subtilis are each diluted in a ratio of 1/1000 in saline solution. Sufficient of the suspensions is put into Caso peptone bouillon to dilute the bacteria again in the ratio of 1/1000. Each of the compounds listed in Table 1 is then added in amounts of 100 and 300 mg/liter. After being incubated for 24 hours at 30° C. in a shaking waterbath, the turbidity of the samples is evaluated.

Pseudomonas aeruginosa = experiment: Minimum inhibitory concentration against bacteria, strain B; assay type: cell-based; settings: 24 hours at 30° C.; tested at 100 and 300 mg/liter
Description: as §1

Enterobacter aerogenes = experiment: Minimum inhibitory concentration against bacteria, strain C; assay type: cell-based; settings: 24 hours at 30° C.; tested at 100 and 300 mg/liter
Description: as §1

Serratia marcencens = experiment: Minimum inhibitory concentration against bacteria, strain D; assay type: cell-based; settings: 24 hours at 30° C.; tested at 100 and 300 mg/liter
Description: as §1

[1] = tested on: Alcaligenes denitrificans; experiment: Minimum inhibitory concentration against bacteria, strain E; assay type: cell-based; settings: 24 hours at 30° C.; tested at 100 and 300 mg/liter
Description: as §1

Bacillus subtilis = experiment: Minimum inhibitory concentration against bacteria, strain F; assay type: cell-based; settings: 24 hours at 30° C.; tested at 100 and 300 mg/liter
Description: as §1

[2] = tested on: mixed culture of bacteria; assay type: cell-based; parameters: key: +: growth, no destruction; (+): growth less than that of control (>10 colonies), slight destruction; (-): slight growth (1-10 colonies); -: no growth, destruction
Aspergillus niger = experiment: Minimum inhibitory concentration against fungi, agar incorporation test, strain K; assay type: cell-based; settings: malt extract/agar
Description: (§2) The invention is carried out using the known agar incorporation test in the following fungi:
(§3) in a malt extract/agar (Merck). Inhibition is effected by adding sufficient of each of the various compounds to give final concentrations in the agar of 2, 5, 10, 50 and 100 mg/liter. The concentrations (mg/liters) required to inhibit the growth of the fungi (starting from traces of fungi added dropwise) are illustrated in Table 3.

Aspergillus phoenicis = experiment: Minimum inhibitory concentration against fungi, agar incorporation test, strain L; assay type: cell-based; settings: malt extract/agar
Description: as §2
(L) Aspergillus phoenicis
as §3

Penicillium funiculosum = experiment: Minimum inhibitory concentration against fungi, agar incorporation test, strain M; assay type: cell-based; settings: malt extract/agar
Description: as §2
(M) Penicillium funiculosum
as §3

Alternaria alternata = experiment: Minimum inhibitory concentration against fungi, agar incorporation test, strain N; assay type: cell-based; settings: malt extract/agar
Description: as §2, §3

[3] = tested on: Cladosporium cladosporioides; experiment: Minimum inhibitory concentration against fungi, agar incorporation test, strain O; assay type: cell-based; settings: malt extract/agar
Description: as §2
(O) Cladosporium cladosporioides
as §3

Candida albicans = experiment: Minimum inhibitory concentration against fungi, agar incorporation test, strain P; assay type: cell-based; settings: malt extract/agar
Description: as §2, §3

Endomyces geotrichum = experiment: Minimum inhibitory concentration against fungi, agar incorporation test, strain Q; assay type: cell-based; settings: malt extract/agar
Description: as §2, §3

Aureobasidium pullulans = experiment: Minimum inhibitory concentration against fungi, agar incorporation test, strain R; assay type: cell-based; settings: malt extract/agar
Description: as §2
(R) Aureobasidium pullulans
as §3

Chaetomium globosum = experiment: Minimum inhibitory concentration against fungi, agar incorporation test, strain S; assay type: cell-based; settings: malt extract/agar
Description: as §2, §3

Chlorella vulgaris = experiment: Action against algae: Chlorella vulgaris; assay type: cell-based; parameters: key: --: no growth on the agar, 3 ppm have destroyed the algae in 6 hours; settings: 3 mg/liter
Description: Cultures of Chlorella vulgaris which had been grown for 14 days in algae nutrient media are diluted in the ratio 1/200 in the algae nutrient medium. Each of the compounds listed in Table 1 is then added in such an amount as to give a final concentration of 3 mg/liter. After incubating for 6 hours, 10 μl of each culture are withdrawn and added dropwise to algae/agar in order to determine the destructive action. After the cultures have incubated for 14 days under illumination (14 hours of light and 10 hours of darkness, alternately), the growth in the algae medium (determination of growth inhibition) and on the algae/agar (determination of algae-destroying action) is assessed visually.

Artemia salina = experiment: Action against Artemia salina nauplii; assay type: in vivo; parameters: key: 0: no change; 1: slight change; 1-2: animals are attacked; 2: animals are strongly attacked; 2-3: animals are nearly all dead; 3: animals are all dead
Description: The eggs, which are available commercially, are caused to hatch by vigorous aeration. When 2-3 days old, the nauplii are exposed to the products at various concentrations (concentrations tested: 2.5; 1; 0.5 and 0.25 mg/liter) in synthetic seawater, and are observed over a prolonged period of time.

Structure (SMILES): CCCCCCCCCCCCCC[N+](CCO)(CCO)Cc1ccccc1.CCC[CH2][Sn-]([Cl])([Cl])([CH2]CCC)[CH2]CCC [Example 24, Di-hydroxyethyl-benzyl-tetradecyl / Tributyldichloro]
- MIC against bacteria, strain A (Proteus vulgaris): 100 µg/mL
- MIC against bacteria, strain B (Pseudomonas aeruginosa): 100 µg/mL
- MIC against bacteria, strain C (Enterobacter aerogenes): 100 µg/mL
- MIC against bacteria, strain D (Serratia marcencens): 100 µg/mL
- MIC against bacteria, strain E [1]: 100 µg/mL
- MIC against bacteria, strain F (Bacillus subtilis): 100 µg/mL
- Growth (destruction of a mixed culture of bacteria) ([2]; 5 mg/l, culture diluted 1/1000 in Tyrode): +
- Growth (destruction of a mixed culture of bacteria) ([2]; 5 mg/l, culture diluted 1/10000 in Tyrode): +
- Growth (destruction of a mixed culture of bacteria) ([2]; 10 mg/l, culture diluted 1/1000 in Tyrode): +
- Growth (destruction of a mixed culture of bacteria) ([2]; 10 mg/l, culture diluted 1/10000 in Tyrode): +
- Growth (destruction of a mixed culture of bacteria) ([2]; 30 mg/l, culture diluted 1/1000 in Tyrode): +
- Growth (destruction of a mixed culture of bacteria) ([2]; 30 mg/l, culture diluted 1/10000 in Tyrode): +
- Growth (destruction of a mixed culture of bacteria) ([2]; 60 mg/l, culture diluted 1/1000 in Tyrode): +
- Growth (destruction of a mixed culture of bacteria) ([2]; 60 mg/l, culture diluted 1/10000 in Tyrode): (+) (growth less than that of control (>10 colonies), slight destruction)
- Growth (destruction of a mixed culture of bacteria) ([2]; 100 mg/l, culture diluted 1/1000 in Tyrode): +
- Growth (destruction of a mixed culture of bacteria) ([2]; 100 mg/l, culture diluted 1/10000 in Tyrode): -
- MIC against fungi, strain K (Aspergillus niger): 5 µg/mL
- MIC against fungi, strain L (Aspergillus phoenicis): 5 µg/mL
- MIC against fungi, strain M (Penicillium funiculosum): 5 µg/mL
- MIC against fungi, strain N (Alternaria alternata): 5 µg/mL
- MIC against fungi, strain O [3]: 2 µg/mL
- MIC against fungi, strain P (Candida albicans): 5 µg/mL
- MIC against fungi, strain Q (Endomyces geotrichum): 5 µg/mL
- MIC against fungi, strain R (Aureobasidium pullulans): 2 µg/mL
- MIC against fungi, strain S (Chaetomium globosum): 2 µg/mL
- Growth on the agar (algae-destroying action) (Chlorella vulgaris; 6 hours exposure, 14 days incubation): --
- Growth in the medium (growth inhibition) (Chlorella vulgaris; 14 days): --
- Action against Artemia salina (Artemia salina; 0,5 mg/l, 6 hours): 1-2
- Action against Artemia salina (Artemia salina; 0,5 mg/l, 24 hours): 2-3
- Action against Artemia salina (Artemia salina; 0,5 mg/l, 48 hours): 3
- Action against Artemia salina (Artemia salina; 0,25 mg/l, 6 hours): 0-1
- Action against Artemia salina (Artemia salina; 0,25 mg/l, 24 hours): 2
- Action against Artemia salina (Artemia salina; 0,25 mg/l, 48 hours): 2-3
- Action against Artemia salina (Artemia salina; 1 mg/l, 6 hours): 2
- Action against Artemia salina (Artemia salina; 1 mg/l, 24 hours): 3
- Action against Artemia salina (Artemia salina; 1 mg/l, 48 hours): 3
- Action against Artemia salina (Artemia salina; 2,5 mg/l, 6 hours): 2-3
- Action against Artemia salina (Artemia salina; 2,5 mg/l, 24 hours): 3
- Action against Artemia salina (Artemia salina; 2,5 mg/l, 48 hours): 3
